Source: the kinase profiling compilation of Christmann-Franck et al. (2016)

Experiments:
Experiment in all cases: radiometric filter-binding kinase assay, Kinase HotSpot
[1] = biological target: MAP3K11 (human) (UniProt Q16584); settings: compound 0.5 µM; ATP 10 µM
[2] = biological target: FGFR4 (human) (UniProt P22455); settings: compound 0.5 µM; ATP 10 µM
[3] = biological target: MST1R (human) (UniProt Q04912); settings: compound 0.5 µM; ATP 10 µM
[4] = biological target: NEK9 (human) (UniProt Q8TD19); settings: compound 0.5 µM; ATP 10 µM
Sequence of NEK9 (human) (Q8TD19 whole entry, looked up): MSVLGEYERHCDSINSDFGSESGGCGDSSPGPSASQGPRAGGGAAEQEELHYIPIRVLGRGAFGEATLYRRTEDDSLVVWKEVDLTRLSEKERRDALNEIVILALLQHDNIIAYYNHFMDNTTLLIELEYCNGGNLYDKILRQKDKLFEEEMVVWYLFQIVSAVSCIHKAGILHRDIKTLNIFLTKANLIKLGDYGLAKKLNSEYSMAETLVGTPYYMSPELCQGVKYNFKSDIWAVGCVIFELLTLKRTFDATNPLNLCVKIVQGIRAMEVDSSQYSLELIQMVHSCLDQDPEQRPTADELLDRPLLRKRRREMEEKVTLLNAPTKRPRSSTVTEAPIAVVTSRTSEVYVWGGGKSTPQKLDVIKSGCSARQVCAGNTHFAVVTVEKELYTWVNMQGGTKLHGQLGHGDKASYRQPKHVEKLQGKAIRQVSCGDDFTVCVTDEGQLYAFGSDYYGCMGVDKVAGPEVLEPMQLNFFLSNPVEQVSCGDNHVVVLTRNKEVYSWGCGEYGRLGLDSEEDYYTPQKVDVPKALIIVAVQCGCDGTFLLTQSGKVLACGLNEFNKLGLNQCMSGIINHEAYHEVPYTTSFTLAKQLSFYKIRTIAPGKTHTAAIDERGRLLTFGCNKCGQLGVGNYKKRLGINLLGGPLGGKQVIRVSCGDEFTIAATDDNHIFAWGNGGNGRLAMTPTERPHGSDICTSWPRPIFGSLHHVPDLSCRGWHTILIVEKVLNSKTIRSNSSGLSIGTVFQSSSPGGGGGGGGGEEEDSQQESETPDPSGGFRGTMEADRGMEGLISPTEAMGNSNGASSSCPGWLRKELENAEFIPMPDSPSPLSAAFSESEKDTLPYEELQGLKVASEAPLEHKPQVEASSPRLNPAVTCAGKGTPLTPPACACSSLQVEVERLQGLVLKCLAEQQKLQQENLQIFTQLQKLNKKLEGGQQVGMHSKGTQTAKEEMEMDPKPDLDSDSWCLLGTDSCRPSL

[5] = biological target: AXL (human) (UniProt P30530); settings: compound 0.5 µM; ATP 10 µM
[6] = biological target: PAK3 (human) (UniProt O75914); settings: compound 0.5 µM; ATP 10 µM
[7] = biological target: PRKCG (human) (UniProt P05129); settings: compound 0.5 µM; ATP 10 µM
[8] = biological target: CSNK1A1 (human) (UniProt P48729); settings: compound 0.5 µM; ATP 10 µM
[9] = biological target: PAK2 (human) (UniProt Q13177); settings: compound 0.5 µM; ATP 10 µM
[10] = biological target: MAPK12 (human) (UniProt P53778); settings: compound 0.5 µM; ATP 10 µM
[11] = biological target: PDPK1 (human) (UniProt O15530); settings: compound 0.5 µM; ATP 10 µM
Sequence of PDPK1 (human) (O15530 whole entry, looked up): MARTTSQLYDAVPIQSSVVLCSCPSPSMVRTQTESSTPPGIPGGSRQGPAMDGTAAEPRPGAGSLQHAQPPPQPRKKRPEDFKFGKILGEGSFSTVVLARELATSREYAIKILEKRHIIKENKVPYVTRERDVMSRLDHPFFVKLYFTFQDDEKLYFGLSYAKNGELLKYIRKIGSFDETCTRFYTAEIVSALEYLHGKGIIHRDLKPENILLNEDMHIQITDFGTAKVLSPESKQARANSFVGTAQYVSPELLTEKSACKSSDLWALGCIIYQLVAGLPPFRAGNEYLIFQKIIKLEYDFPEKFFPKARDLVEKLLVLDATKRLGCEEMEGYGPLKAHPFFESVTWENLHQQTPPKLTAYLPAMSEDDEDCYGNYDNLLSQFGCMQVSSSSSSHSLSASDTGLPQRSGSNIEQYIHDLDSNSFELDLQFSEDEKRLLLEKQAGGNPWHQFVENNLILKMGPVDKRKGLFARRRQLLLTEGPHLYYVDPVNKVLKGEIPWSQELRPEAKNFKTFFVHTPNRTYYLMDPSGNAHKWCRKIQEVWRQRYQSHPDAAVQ

[12] = biological target: SIK2 (human) (UniProt Q9H0K1); settings: compound 0.5 µM; ATP 10 µM
[13] = biological target: PRKG2 (human) (UniProt Q13237); settings: compound 0.5 µM; ATP 10 µM
[14] = biological target: SRMS (human) (UniProt Q9H3Y6); settings: compound 0.5 µM; ATP 10 µM
[15] = biological target: CDK6 CCND1 (human) (UniProt Q00534+P24385); settings: compound 0.5 µM
[16] = biological target: RPS6KA1 KD1 KD2 (human) (UniProt Q15418); settings: compound 0.5 µM; ATP 10 µM
[17] = biological target: MARK2 (human) (UniProt Q7KZI7); settings: compound 0.5 µM; ATP 10 µM
[18] = biological target: ZAP70 (human) (UniProt P43403); settings: compound 0.5 µM; ATP 10 µM
[19] = biological target: STK17A (human) (UniProt Q9UEE5); settings: compound 0.5 µM; ATP 10 µM
[20] = biological target: CDK9 CCNT1 (human) (UniProt P50750+O60563); settings: compound 0.5 µM
[21] = biological target: RET (human) (UniProt P07949); settings: compound 0.5 µM; ATP 10 µM
[22] = biological target: NEK7 (human) (UniProt Q8TDX7); settings: compound 0.5 µM; ATP 10 µM
Sequence of NEK7 (human) (Q8TDX7 whole entry, looked up): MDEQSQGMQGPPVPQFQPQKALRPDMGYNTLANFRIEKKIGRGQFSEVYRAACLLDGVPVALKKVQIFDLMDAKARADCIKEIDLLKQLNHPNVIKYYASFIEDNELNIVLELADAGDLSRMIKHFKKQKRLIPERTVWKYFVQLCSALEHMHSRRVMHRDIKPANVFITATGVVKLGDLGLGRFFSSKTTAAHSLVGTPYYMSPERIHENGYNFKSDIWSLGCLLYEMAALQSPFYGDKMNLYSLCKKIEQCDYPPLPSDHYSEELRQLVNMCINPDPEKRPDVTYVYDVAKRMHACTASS

[23] = biological target: MAP3K10 (human) (UniProt Q02779); settings: compound 0.5 µM; ATP 10 µM
[24] = biological target: PAK4 (human) (UniProt O96013); settings: compound 0.5 µM; ATP 10 µM
[25] = biological target: STK24 (human) (UniProt Q9Y6E0); settings: compound 0.5 µM; ATP 10 µM
[26] = biological target: LTK (human) (UniProt P29376); settings: compound 0.5 µM; ATP 10 µM
[27] = biological target: ADRBK2 (human) (UniProt P35626); settings: compound 0.5 µM; ATP 10 µM
[28] = biological target: LRRK2 (human) (UniProt Q5S007); settings: compound 0.5 µM; ATP 10 µM
[29] = biological target: RPS6KA3 KD1 KD2 (human) (UniProt P51812); settings: compound 0.5 µM; ATP 10 µM
Sequence of RPS6KA3 KD1 KD2 (human) (P51812 whole entry, looked up): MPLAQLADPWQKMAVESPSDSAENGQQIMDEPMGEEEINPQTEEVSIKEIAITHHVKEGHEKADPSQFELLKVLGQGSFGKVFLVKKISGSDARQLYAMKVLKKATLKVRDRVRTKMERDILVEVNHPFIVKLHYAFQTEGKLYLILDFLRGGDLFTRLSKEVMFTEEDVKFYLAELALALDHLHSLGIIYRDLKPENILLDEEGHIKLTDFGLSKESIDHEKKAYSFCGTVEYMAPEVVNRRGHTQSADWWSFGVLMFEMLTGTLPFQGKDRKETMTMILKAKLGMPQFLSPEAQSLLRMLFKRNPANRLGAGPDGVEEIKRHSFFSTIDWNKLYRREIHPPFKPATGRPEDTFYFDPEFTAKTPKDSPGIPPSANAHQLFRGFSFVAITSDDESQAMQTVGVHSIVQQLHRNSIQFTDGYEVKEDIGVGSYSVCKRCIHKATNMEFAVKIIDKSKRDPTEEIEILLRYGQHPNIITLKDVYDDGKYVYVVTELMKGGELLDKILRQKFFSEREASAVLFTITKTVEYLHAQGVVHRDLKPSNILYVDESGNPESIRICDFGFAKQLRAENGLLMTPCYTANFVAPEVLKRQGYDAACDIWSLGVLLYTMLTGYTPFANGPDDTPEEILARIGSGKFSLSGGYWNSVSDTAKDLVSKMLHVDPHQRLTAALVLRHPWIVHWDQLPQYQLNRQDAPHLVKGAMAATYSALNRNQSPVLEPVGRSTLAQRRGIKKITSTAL

[30] = biological target: CAMK1 (human) (UniProt Q14012); settings: compound 0.5 µM; ATP 10 µM
[31] = biological target: PLK1 (human) (UniProt P53350); settings: compound 0.5 µM; ATP 10 µM
[32] = biological target: EPHB3 (human) (UniProt P54753); settings: compound 0.5 µM; ATP 10 µM
[33] = biological target: WEE1 (human) (UniProt P30291); settings: compound 0.5 µM; ATP 10 µM
[34] = biological target: NEK1 (human) (UniProt Q96PY6); settings: compound 0.5 µM; ATP 10 µM
[35] = biological target: NTRK1 (human) (UniProt P04629); settings: compound 0.5 µM; ATP 10 µM
[36] = biological target: STK25 (human) (UniProt O00506); settings: compound 0.5 µM; ATP 10 µM
Sequence of STK25 (human) (O00506 whole entry, looked up): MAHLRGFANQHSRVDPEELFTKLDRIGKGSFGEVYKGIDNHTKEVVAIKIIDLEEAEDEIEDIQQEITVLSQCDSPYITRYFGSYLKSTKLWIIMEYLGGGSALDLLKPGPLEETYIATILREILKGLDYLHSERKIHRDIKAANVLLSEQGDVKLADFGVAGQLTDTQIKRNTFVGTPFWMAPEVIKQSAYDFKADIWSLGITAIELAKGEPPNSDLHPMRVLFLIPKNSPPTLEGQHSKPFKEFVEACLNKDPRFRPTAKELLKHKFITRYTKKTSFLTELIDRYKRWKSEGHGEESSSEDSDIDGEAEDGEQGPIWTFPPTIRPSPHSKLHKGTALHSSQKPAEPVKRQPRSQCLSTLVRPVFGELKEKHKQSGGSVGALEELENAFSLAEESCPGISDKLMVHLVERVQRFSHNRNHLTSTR

[37] = biological target: PLK2 (human) (UniProt Q9NYY3); settings: compound 0.5 µM; ATP 10 µM
[38] = biological target: MAPKAPK5 (human) (UniProt Q8IW41); settings: compound 0.5 µM; ATP 10 µM
Sequence of MAPKAPK5 (human) (Q8IW41 whole entry, looked up): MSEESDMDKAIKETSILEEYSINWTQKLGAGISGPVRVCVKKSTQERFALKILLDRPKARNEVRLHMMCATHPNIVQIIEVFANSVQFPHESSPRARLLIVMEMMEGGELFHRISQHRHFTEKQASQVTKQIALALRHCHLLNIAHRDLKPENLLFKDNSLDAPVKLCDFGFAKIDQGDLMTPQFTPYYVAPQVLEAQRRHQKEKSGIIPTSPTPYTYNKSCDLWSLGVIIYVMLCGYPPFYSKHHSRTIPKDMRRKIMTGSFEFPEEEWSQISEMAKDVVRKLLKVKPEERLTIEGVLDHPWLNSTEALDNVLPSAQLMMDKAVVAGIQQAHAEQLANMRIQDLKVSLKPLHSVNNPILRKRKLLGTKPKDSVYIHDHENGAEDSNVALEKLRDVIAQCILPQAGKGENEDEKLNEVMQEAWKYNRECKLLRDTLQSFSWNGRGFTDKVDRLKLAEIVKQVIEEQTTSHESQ

[39] = biological target: GRK6 (human) (UniProt P43250); settings: compound 0.5 µM; ATP 10 µM
[40] = biological target: TAOK1 (human) (UniProt Q7L7X3); settings: compound 0.5 µM; ATP 10 µM
[41] = biological target: CLK4 (human) (UniProt Q9HAZ1); settings: compound 0.5 µM; ATP 10 µM
[42] = biological target: ROCK2 (human) (UniProt O75116); settings: compound 0.5 µM; ATP 10 µM

Sequence of MAP3K11 (human) (Q16584 whole entry, looked up): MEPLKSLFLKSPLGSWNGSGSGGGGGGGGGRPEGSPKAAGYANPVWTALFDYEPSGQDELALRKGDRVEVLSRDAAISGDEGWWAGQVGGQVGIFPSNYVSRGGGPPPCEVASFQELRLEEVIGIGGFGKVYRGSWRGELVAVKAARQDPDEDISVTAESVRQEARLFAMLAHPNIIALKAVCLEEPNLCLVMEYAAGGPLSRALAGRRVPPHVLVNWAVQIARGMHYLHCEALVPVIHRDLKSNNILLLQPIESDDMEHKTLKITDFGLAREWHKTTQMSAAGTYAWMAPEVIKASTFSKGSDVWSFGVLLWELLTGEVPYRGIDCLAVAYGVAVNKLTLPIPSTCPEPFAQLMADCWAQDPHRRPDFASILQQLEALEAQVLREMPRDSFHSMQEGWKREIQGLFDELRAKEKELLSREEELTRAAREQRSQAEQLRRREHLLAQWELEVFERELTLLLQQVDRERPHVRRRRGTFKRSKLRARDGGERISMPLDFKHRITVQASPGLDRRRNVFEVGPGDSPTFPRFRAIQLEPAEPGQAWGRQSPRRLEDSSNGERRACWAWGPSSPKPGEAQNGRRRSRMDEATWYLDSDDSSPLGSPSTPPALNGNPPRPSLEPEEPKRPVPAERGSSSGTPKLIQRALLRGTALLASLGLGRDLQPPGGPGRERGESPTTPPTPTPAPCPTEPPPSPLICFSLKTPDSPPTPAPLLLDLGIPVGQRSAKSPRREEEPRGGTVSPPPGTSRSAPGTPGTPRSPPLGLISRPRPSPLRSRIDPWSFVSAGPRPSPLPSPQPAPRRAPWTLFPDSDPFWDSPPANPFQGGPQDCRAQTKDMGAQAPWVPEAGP

In the case of `CCOc1cc2ncnc(Nc3cccc(Br)c3)c2cc1OCC`, the residual activity [1] is reported as 93%, the residual activity [2] is reported as 87.1% and the residual activity [3] is reported as 102%. The residual activity [4] was 96.7%, the residual activity [5] was 89.9% and the residual activity [6] was 97.6%. For the same compound, the residual activity [7] was 83%, the residual activity [8] was 98.6% and the residual activity [9] was 105%. The residual activity [10] was 105%, the residual activity [11] was 96.8% and the residual activity [12] was 109%. The residual activity [13] was 83.9%, the residual activity [14] was 85.7% and the residual activity ([15]; ATP 10 µM) was 102%. It also gave a residual activity [16] of 82.8%, a residual activity [17] of 94.5% and a residual activity [18] of 105%. It also gave a residual activity [19] of 98.9%, a residual activity ([20]; ATP 10 µM) of 98.5% and a residual activity [21] of 39.3%. It also gave a residual activity [22] of 98.6%, a residual activity [23] of 93.2% and a residual activity [24] of 115%. It also gave a residual activity [25] of 97.6%, a residual activity [26] of 69.7% and a residual activity [27] of 93.8%. It also gave a residual activity [28] of 78.7%, a residual activity [29] of 89.9% and a residual activity [30] of 79.9%. For the same compound, the residual activity [31] was 93.6%, the residual activity [32] was 99.7% and the residual activity [33] was 97.9%. The residual activity [34] was 99.2%, the residual activity [35] was 89.6% and the residual activity [36] was 90.1%. The residual activity [37] was 99.8%, the residual activity [38] was 71.6% and the residual activity [39] was 96%. The residual activity [40] was 99.9%, the residual activity [41] was 83.1% and the residual activity [42] was 91.8%.
Compound `O=c1[nH]c2ccccc2n1C1CCN(Cc2ccc(-c3nc4cc5[nH]cnc5cc4nc3-c3ccccc3)cc2)CC1` has a residual activity [1] of 94.6%, a residual activity [2] of 97.2% and a residual activity [3] of 111%. For the same compound, the residual activity [4] was 99.2%, the residual activity [5] was 105% and the residual activity [6] was 104%. It also gave a residual activity [7] of 92.2%, a residual activity [8] of 96% and a residual activity [9] of 99.2%. For the same compound, the residual activity [10] was 93.1%, the residual activity [11] was 107% and the residual activity [12] was 114%. The residual activity [13] was 96.8%, the residual activity [14] was 93.1% and the residual activity [15] was 105%. It also gave a residual activity [16] of 101%, a residual activity [17] of 92.2% and a residual activity [18] of 97.3%. For the same compound, the residual activity [19] was 98.2%, the residual activity [20] was 93.2% and the residual activity [21] was 96.7%. It also gave a residual activity [22] of 99.6%, a residual activity [23] of 102% and a residual activity [24] of 102%. It also gave a residual activity [25] of 90.7%, a residual activity [26] of 95.6% and a residual activity [27] of 87.3%. The residual activity [28] was 103%, the residual activity [29] was 96.6% and the residual activity [30] was 95.1%. It also gave a residual activity [31] of 109%, a residual activity [32] of 104% and a residual activity [33] of 93.9%. It also gave a residual activity [34] of 101%, a residual activity [35] of 99.4% and a residual activity [36] of 89.8%. The residual activity [37] was 95.5%, the residual activity [38] was 97.4% and the residual activity [39] was 88%. It also gave a residual activity [40] of 102%, a residual activity [41] of 92.8% and a residual activity [42] of 109%.
`Cc1cc(Nc2nc(-c3ccccc3)nc3ccccc23)n[nH]1` showed a residual activity [1] of 18.1%, a residual activity [2] of 81.9% and a residual activity [3] of 96.6%. For the same compound, the residual activity [4] was 79.9%, the residual activity [5] was 101% and the residual activity [6] was 90.2%. For the same compound, the residual activity [7] was 98.6%, the residual activity [8] was 94.6% and the residual activity [9] was 91.8%. The residual activity [10] was 86.8%, the residual activity [11] was 90.3% and the residual activity [12] was 99.6%. It also gave a residual activity [13] of 98.2%, a residual activity [14] of 98.7% and a residual activity ([15]; ATP 10 µM) of 85.5%. It also gave a residual activity [16] of 58%, a residual activity [17] of 89.6% and a residual activity [18] of 105%. The residual activity [19] was 81.3%, the residual activity ([20]; ATP 10 µM) was 89.1% and the residual activity [21] was 8.76%. The residual activity [22] was 97.7%, the residual activity [23] was 75.4% and the residual activity [24] was 84.2%. The residual activity [25] was 66%, the residual activity [26] was 63.6% and the residual activity [27] was 106%. For the same compound, the residual activity [28] was 88.3%, the residual activity [29] was 66.1% and the residual activity [30] was 93.1%. It also gave a residual activity [31] of 97.1%, a residual activity [32] of 86.5% and a residual activity [33] of 88%. For the same compound, the residual activity [34] was 93%, the residual activity [35] was 14.6% and the residual activity [36] was 86.7%. The residual activity [37] was 110%, the residual activity [38] was 93.2% and the residual activity [39] was 75.8%. It also gave a residual activity [40] of 115%, a residual activity [41] of 34.3% and a residual activity [42] of 87.6%.
